Here are results for one compound from patent US9278083B2, “Methods for purifying trans-(−)-Δ9-tetrahydrocannabinol and trans-(+)-Δ9-tetrahydrocannabinol” (SVC Pharma LP, priority 2004, dated 2016).

A short description of the series: Storage stability of crystalline (±)-Δ^9-THC at 25° C.

As for `CCCCCc1cc(O)c2c(c1)OC(C)(C)[C@@H]1CCC(C)=C[C@@H]21` (racemic) [crystalline (±)-Δ^9-THC, (±)-Δ^9-THC], for the setting “off-white crystals of Example 17, at 25° C. in the presence of air and laboratory lighting”, the Stability on storage entry is “stable”. For the same compound, for the setting “white crystalline solid of Example 15, after at least three days at 25° C.”, the “Appearance (colour) on storage” value is recorded as “remained white”.
